Measured values taken from paper PMC4519859, “Synthesis and Biological Evaluation of Novel Dehydroabietic Acid Derivatives Conjugated with Acyl-Thiourea Peptide Moiety as Antitumor Agents” (International Journal of Molecular Sciences, 2015).

Key:
Type in all cases: cell-based
[1] = system: HeLa; experiment: MTT cytotoxicity assay, HeLa; conditions: Homo sapiens, 48 h, mean ± SD, three independent experiments
Experimental: (§1) The in vitro cytotoxic potency of DHAA acyl-thiourea derivatives 8a–8o and 9a–9o were evaluated by 3-(4,5-dimethylthiazol-2-yl)-2,5-diphenyltetrazolium bromide (MTT) assay against HeLa, SK-OV-3 and MGC-803 tumor cell lines, with 5-FU as the positive control.
(§2) General procedure for cytotoxic evaluation in vitro: HeLa, HepG2, SK-OV-3 and MGC-803 cells were seeded into 96-well microculture plates and allowed to adhere for 24 h, respectively. After cells were exposed to compounds at concentrations from 100 to 0.01 μM for 48 h, medium was aspirated and replenished with complete medium. IC50 was evaluated by MTT tetrazolium dye assay. Each experiment was performed three times; Statistical analysis: All statistical analysis was performed with SPSS Version 10 (SPSS, Chicago, IL, USA). Data was analyzed by one-way ANOVA. Mean separations were performed using the least significant difference method. Each experiment was replicated thrice, and all experiments yielded similar results. Measurements from all the replicates were combined, and treatment effects were analyzed.

[2] = system: MGC-803; experiment: MTT cytotoxicity assay, MGC-803; conditions: Homo sapiens, 48 h, mean ± SD, three independent experiments
Experimental: as §1, §2

[3] = system: HL-7702; experiment: MTT cytotoxicity assay, HL-7702 normal cells; conditions: L02, 48 h, normal human cells, mean ± SD, three independent experiments
Experimental: [The source words this procedure for another cell line and reports this cell line under the same test.] as §1, §2

[4] = system: SK-OV-3; experiment: MTT cytotoxicity assay, SK-OV-3; conditions: Homo sapiens, 48 h, mean ± SD, three independent experiments
Experimental: as §1, §2

SMILES	IC50 [1]	IC50 [2]	IC50 [3]	IC50 [4]
CC(C)c1ccc2c(c1)CCC1[C@](C)(C(=O)NC(=S)N[C@H](C)C(=O)Nc3ccccc3)CCC[C@]21C (stereo partly drawn) [Compound 8a, (1R,4aS)-7-Isopropyl-1,4a-dimethyl-N-(((R)-1-oxo-1-(phenylamino)propan-2-yl)carbamothioyl)-1,2,3,4,4a,9,10,10a-octahydrophenanthrene-1-carboxamide]	31.1 ± 2.13 µM	28.5 ± 1.79 µM	47.6 ± 2.43 µM	26.5 ± 2.53 µM
Cc1ccc(NC(=O)[C@@H](C)NC(=S)NC(=O)[C@]2(C)CCC[C@]3(C)c4ccc(C(C)C)cc4CCC23)cc1 (stereo partly drawn) [Compound 8c, (1R,4aS)-7-Isopropyl-1,4a-dimethyl-N-(((R)-1-oxo-1-(p-tolylamino)propan-2-yl)carbamothioyl)-1,2,3,4,4a,9,10,10a-octahydrophenanthrene-1-carboxamide]	38.7 ± 3.65 µM	24.9 ± 1.64 µM	61.7 ± 3.41 µM	50.9 ± 4.11 µM
CC(C)c1ccc2c(c1)CCC1[C@](C)(C(=O)NC(=S)N[C@H](Cc3ccccc3)C(=O)Nc3ccc(Br)cc3)CCC[C@]21C (stereo partly drawn) [Compound 9k, (1R,4aS)-N-(((R)-1-((4-Bromophenyl)amino)-1-oxo-3-phenylpropan-2-yl)carbamothioyl)-7-isopropyl-1,4a-dimethyl-1,2,3,4,4a,9,10,10a-octahydrophenanthrene-1-carboxamide]	15.7 ± 1.13 µM	25.5 ± 2.47 µM	66.5 ± 4.48 µM	46.7 ± 4.76 µM
Cc1ccc(NC(=O)[C@@H](Cc2ccccc2)NC(=S)NC(=O)[C@]2(C)CCC[C@]3(C)c4ccc(C(C)C)cc4CCC23)cc1 (stereo partly drawn) [Compound 9c, (1R,4aS)-7-Isopropyl-1,4a-dimethyl-N-(((R)-1-oxo-3-phenyl-1-(p-tolylamino)propan-2-yl)carbamothioyl)-1,2,3,4,4a,9,10,10a-octahydrophenanthrene-1-carboxamide]	19.1 ± 1.08 µM	19.2 ± 1.66 µM	36.2 ± 1.39 µM	16.2 ± 1.98 µM
CC(C)c1ccc2c(c1)CC[C@H]1[C@](C)(C(=O)O)CCC[C@]21C [DHA, dehydroabietic acid]	30.4 ± 3.45 µM	> 100 µM	–	87.5 ± 4.12 µM
CC(C)c1ccc2c(c1)CCC1[C@](C)(C(=O)NC(=S)N[C@H](Cc3ccccc3)C(=O)Nc3ccccc3F)CCC[C@]21C (stereo partly drawn) [Compound 9h, (1R,4aS)-N-(((R)-1-((2-Fluorophenyl)amino)-1-oxo-3-phenylpropan-2-yl)carbamothioyl)-7-isopropyl-1,4a-dimethyl-1,2,3,4,4a,9,10,10a-octahydrophenanthrene-1-carboxamide]	18.8 ± 1.45 µM	24.7 ± 3.33 µM	49.4 ± 2.64 µM	28.8 ± 2.32 µM
CC(C)c1ccc2c(c1)CCC1[C@](C)(C(=O)NC(=S)N[C@H](C)C(=O)Nc3ccc(Br)cc3)CCC[C@]21C (stereo partly drawn) [Compound 8k, (1R,4aS)-N-(((R)-1-((4-Bromophenyl)amino)-1-oxopropan-2-yl)carbamothioyl)-7-isopropyl-1,4a-dimethyl-1,2,3,4,4a,9,10,10a-octahydrophenanthrene-1-carboxamide]	19 ± 1.46 µM	30 ± 1.24 µM	54.6 ± 3.65 µM	40.8 ± 3.57 µM
Cc1cc(C)cc(NC(=O)[C@@H](Cc2ccccc2)NC(=S)NC(=O)[C@]2(C)CCC[C@]3(C)c4ccc(C(C)C)cc4CCC23)c1 (stereo partly drawn) [Compound 9l, (1R,4aS)-N-(((R)-1-((3,5-Dimethylphenyl)amino)-1-oxo-3-phenylpropan-2-yl)carbamothioyl)-7-isopropyl-1,4a-dimethyl-1,2,3,4,4a,9,10,10a-octahydrophenanthrene-1-carboxamide]	15.8 ± 1.55 µM	18.1 µM	53.4 ± 2.24 µM	31.5 ± 2.23 µM
CC(C)c1ccc2c(c1)CCC1[C@](C)(C(=O)NC(=S)N[C@H](Cc3ccccc3)C(=O)Nc3ccc(F)cc3)CCC[C@]21C (stereo partly drawn) [Compound 9i, (1R,4aS)-N-(((R)-1-((4-Fluorophenyl)amino)-1-oxo-3-phenylpropan-2-yl)carbamothioyl)-7-isopropyl-1,4a-dimethyl-1,2,3,4,4a,9,10,10a-octahydrophenanthrene-1-carboxamide]	23.7 ± 1.01 µM	21.4 ± 1.88 µM	46.4 ± 2.44 µM	26.5 ± 2.07 µM
O=c1[nH]cc(F)c(=O)[nH]1 [Compound 5-FU, 5-fluorouracil, reference compound]	36.6 ± 1.55 µM	34.9 ± 1.75 µM	–	30.2 ± 1.13 µM
COc1cc(NC(=O)[C@@H](Cc2ccccc2)NC(=S)NC(=O)[C@]2(C)CCC[C@]3(C)c4ccc(C(C)C)cc4CCC23)cc(OC)c1OC (stereo partly drawn) [Compound 9o, (1R,4aS)-7-Isopropyl-1,4a-dimethyl-N-(((R)-1-oxo-3-phenyl-1-((3,4,5-trimethoxyphenyl)amino)propan-2-yl)carbamothioyl)-1,2,3,4,4a,9,10,10a-octahydrophenanthrene-1-carboxamide]	17.5 ± 1.54 µM	29.3 ± 2.09 µM	59.3 ± 2.54 µM	29.3 ± 2.04 µM
CC(C)c1ccc2c(c1)CCC1[C@](C)(C(=O)NC(=S)N[C@H](Cc3ccccc3)C(=O)Nc3ccc(Cl)cc3)CCC[C@]21C (stereo partly drawn) [Compound 9e, (1R,4aS)-N-(((R)-1-((4-Chlorophenyl)amino)-1-oxo-3-phenylpropan-2-yl)carbamothioyl)-7-isopropyl-1,4a-dimethyl-1,2,3,4,4a,9,10,10a-octahydrophenanthrene-1-carboxamide]	17.2 ± 1.25 µM	17.1 ± 2.87 µM	38.5 ± 1.22 µM	18.5 ± 1.27 µM
CC(C)c1ccc2c(c1)CCC1[C@](C)(C(=O)NC(=S)N[C@H](C)C(=O)Nc3ccccc3F)CCC[C@]21C (stereo partly drawn) [Compound 8h, (1R,4aS)-N-(((R)-1-((2-Fluorophenyl)amino)-1-oxopropan-2-yl)carbamothioyl)-7-isopropyl-1,4a-dimethyl-1,2,3,4,4a,9,10,10a-octahydrophenanthrene-1-carboxamide]	23.3 ± 1.55 µM	26.1 ± 2.37 µM	53.5 ± 2.35 µM	31.8 ± 2.36 µM
CC(C)c1ccc2c(c1)CCC1[C@](C)(C(=O)NC(=S)N[C@H](C)C(=O)Nc3cccc4ccccc34)CCC[C@]21C (stereo partly drawn) [Compound 8m, (1R,4aS)-7-Isopropyl-1,4a-dimethyl-N-(((R)-1-(naphthalen-1-ylamino)-1-oxopropan-2-yl)carbamothioyl)-1,2,3,4,4a,9,10,10a-octahydrophenanthrene-1-carboxamide]	46.6 ± 4.77 µM	36.5 ± 3.24 µM	59.5 ± 4.65 µM	49.4 ± 4.64 µM
COc1ccc(NC(=O)[C@@H](Cc2ccccc2)NC(=S)NC(=O)[C@]2(C)CCC[C@]3(C)c4ccc(C(C)C)cc4CCC23)cc1 (stereo partly drawn) [Compound 9g, (1R,4aS)-7-Isopropyl-N-(((R)-1-((4-methoxyphenyl)amino)-1-oxo-3-phenylpropan-2-yl)carbamothioyl)-1,4a-dimethyl-1,2,3,4,4a,9,10,10a-octahydrophenanthrene-1-carboxamide]	15.6 ± 1.53 µM	26.1 ± 2.63 µM	41.1 ± 1.32 µM	20.1 ± 1.78 µM
CC(C)c1ccc2c(c1)CCC1[C@](C)(C(=O)NC(=S)N[C@H](C)C(=O)Nc3ccc(F)cc3)CCC[C@]21C (stereo partly drawn) [Compound 8i, (1R,4aS)-N-(((R)-1-((4-Fluorophenyl)amino)-1-oxopropan-2-yl)carbamothioyl)-7-isopropyl-1,4a-dimethyl-1,2,3,4,4a,9,10,10a-octahydrophenanthrene-1-carboxamide]	30.2 ± 2.55 µM	29.4 ± 2.77 µM	54.5 ± 2.34 µM	32.5 ± 2.64 µM
CC(C)c1ccc2c(c1)CCC1[C@](C)(C(=O)NC(=S)N[C@H](Cc3ccccc3)C(=O)Nc3ccccc3Cl)CCC[C@]21C (stereo partly drawn) [Compound 9d, (1R,4aS)-N-(((R)-1-((2-Chlorophenyl)amino)-1-oxo-3-phenylpropan-2-yl)carbamothioyl)-7-isopropyl-1,4a-dimethyl-1,2,3,4,4a,9,10,10a-octahydrophenanthrene-1-carboxamide]	17 ± 1.76 µM	20.4 ± 3.41 µM	36.5 ± 1.43 µM	16.9 ± 1.43 µM
Cc1cc(C)cc(NC(=O)[C@@H](C)NC(=S)NC(=O)[C@]2(C)CCC[C@]3(C)c4ccc(C(C)C)cc4CCC23)c1 (stereo partly drawn) [Compound 8l, (1R,4aS)-N-(((R)-1-((3,5-Dimethylphenyl)amino)-1-oxopropan-2-yl)carbamothioyl)-7-isopropyl-1,4a-dimethyl-1,2,3,4,4a,9,10,10a-octahydrophenanthrene-1-carboxamide]	18.6 ± 1.24 µM	13.9 ± 1.32 µM	55.3 ± 2.65 µM	33 ± 2.59 µM
CC(C)c1ccc2c(c1)CCC1[C@](C)(C(=O)NC(=S)N[C@H](Cc3ccccc3)C(=O)Nc3ccccc3)CCC[C@]21C (stereo partly drawn) [Compound 9a, (1R,4aS)-7-Isopropyl-1,4a-dimethyl-N-(((R)-1-oxo-3-phenyl-1-(phenylamino)propan-2-yl)carbamothioyl)-1,2,3,4,4a,9,10,10a-octahydrophenanthrene-1-carboxamide]	25.7 ± 2.23 µM	26.6 ± 3.25 µM	37.5 ± 1.44 µM	17 ± 1.13 µM
COc1cc(NC(=O)[C@@H](C)NC(=S)NC(=O)[C@]2(C)CCC[C@]3(C)c4ccc(C(C)C)cc4CCC23)cc(OC)c1OC (stereo partly drawn) [Compound 8o, (1R,4aS)-7-Isopropyl-1,4a-dimethyl-N-(((R)-1-oxo-1-((3,4,5-trimethoxyphenyl)amino)propan-2-yl)carbamothioyl)-1,2,3,4,4a,9,10,10a-octahydrophenanthrene-1-carboxamide]	18.1 ± 1.23 µM	22.7 ± 1.77 µM	49.2 ± 2.65 µM	29.6 ± 2.67 µM
